The test system of data set [1] is endogenous skin phosphatase. The format is biochemical, porcine. Conditions: optical density compared to the naïve condition. As to the method: Our next studies involved applying the test substance (500 μL) directly to the epidermis side of previously frozen porcine skin (Spear Products, Coopersburg, PA) that is placed in a holder that only exposes the epidermis side for 30 minutes, adding phosphate buffered saline (PBS) with added sodium azide (metabolic inhibitor that ensure no viable tissue), then aliquoting into cuvettes to read at an optical density of 300 nm. […] So, at the end of the initial studies described above, almost out of frustration, we tried to probe for released phosphatase activity using p-Nitrophenyl phosphate disodium salt (PNPP; Sigma Aldrich, St. Louis, MO) substrate solution to detect any presence of phosphatase.
• 1. Thaw 2 pieces of frozen porcine skin • a. Punch out as many skin discs and mount in holders • 2. Label cuvettes (3 for each chemical)
• 1. Add 500 μL of test chemical to holder; incubate at room temperate for 30 minutes • 2. After 30 minutes, add 2 mL of PBS-Azide to both the holder containing the test chemical; forcefully pipette and re-pipette 10 times • 3. From the holder, aliquot 400 μL into 3 cuvettes; forcefully pipette and re-pipette 3 times before dispensing into cuvettes
Skin corrosion by GHS Category 1 dermal corrosive chemicals results in the disintegration of the epidermis into the dermis.

In a further data set the test system is skin. Conditions: cited from earlier work.
The next data set deals with alkaline phosphatase (Bos taurus, UniProt P19111). The format is biochemical. More on the design: purchased Sigma Aldrich, St. Louis, MO P0114 (original source); P7640 (second source, 'new AP' condition only).
Sequence of alkaline phosphatase (P19111 20-506): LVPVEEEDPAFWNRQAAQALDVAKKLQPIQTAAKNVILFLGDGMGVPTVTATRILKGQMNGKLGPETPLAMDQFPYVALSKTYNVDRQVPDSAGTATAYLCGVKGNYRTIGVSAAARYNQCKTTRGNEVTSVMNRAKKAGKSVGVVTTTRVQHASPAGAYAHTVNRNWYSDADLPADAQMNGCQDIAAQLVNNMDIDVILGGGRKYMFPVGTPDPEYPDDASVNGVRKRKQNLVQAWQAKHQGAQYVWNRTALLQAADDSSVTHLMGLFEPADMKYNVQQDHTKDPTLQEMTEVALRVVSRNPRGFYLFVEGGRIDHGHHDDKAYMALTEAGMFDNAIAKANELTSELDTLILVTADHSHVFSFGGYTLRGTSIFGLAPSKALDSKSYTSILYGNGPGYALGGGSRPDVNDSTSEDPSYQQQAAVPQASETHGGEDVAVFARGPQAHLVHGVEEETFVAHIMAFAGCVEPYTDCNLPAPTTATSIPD
For another data set, the system named is porcine skin. Conditions: R 1 and 2. The protocol: Our initial studies involved using fresh and frozen porcine skin “buttons”. These buttons were punched out of porcine skin (Spear Products, Cooopersburg, PA) using a […] biopsy punch tool. Three different kinds of skin buttons were prepared from fresh porcine skin, frozen porcine skin, and frozen porcine skin with the fatty layer removed. […] The next day, the tubes were taken out and vortexed and 500 μL of the solution was aliquoted into cuvettes to read at three different optical density wavelengths (OD190, OD290, OD300) to evaluate the best response.
• 1. Thaw 2 pieces of frozen porcine skin • 2. Punch out buttons: 24 buttons in each tube filled with 40 mL PBS-Azide
• 1. Plate layout for dosing:
• 1. Dose each tissue with 140 μL of test chemical • 2.
• 1. Take out of incubator and vortex pulse 3× • 2. Aliquot 500 μL to cuvette and read results at OD190, OD290, and OD300
There were three readings done at an optical density of 190, 290, and 300 nm to evaluate the best response. […] To address the variable exposure conditions, our next studies involved placing a larger porcine skin section into a holder that exposes only the epidermis side with no potential for test chemical exposure from the backside or through the sides.

Setting [2] is: 1:100, 20 μL into 180 μL, 0.5 mL microcentrifuge tubes, 4 hours RT, PNPP 60 min, 405 nm.
Setting [3] is: average of R1-R3, 1:100, 20 μL into 180 μL, 4 hours RT, PNPP 60 min, 405 nm.
[4] abbreviates: skin, chemical lists of the protocols.
[5] abbreviates: fresh porcine skin, 140 μL, 18 hours at 37° C. in PBS-Azide.
Where [6] appears, read: frozen porcine skin with fat layer removed.

Several values for one entry are separate records, joined by “and”; a condition that tells them apart may be missing. Identical values can stand only once. Like-named read-outs stand apart in the source and are kept apart here.

Regarding `BrCCc1ccccc1` [(2-Bromoethyl)benzene], in data set [1], the “percent of phosphatase measured (first reading)” value (from here on “percent … (first reading)”) came out at 100.0%; the “percent of phosphatase measured (second reading)” value (“percent … (second reading)” for short) came out at 100.0%; the “percent of phosphatase measured, average” value stood at 100.0%. For the same molecule, in the data set on skin (rabbit, in vivo), the Corrosive entry is “No”.

For the molecule `CCCCCCCCCCO` [1-Decanol], on alkaline phosphatase, the “A1-Results AVG” value is recorded as 3.449, the “A1-Results R1” value is reported as 3.502 and the “A1-Results R3” value amounted to 3.380.

For the molecule `CC(C)(O)CCc1ccccc1` [2-Methyl-4-phenyl-2-butanol], in data set [1], the “percent … (first reading)” value was 98.6%; the “percent … (second reading)” value came out at 100.0%; the “percent of phosphatase measured, average” value is listed as 99.3%. The Corrosive result with skin (Table 2) is listed as “No”.

Take `CCCCCBr` [1-Bromopentane]: at alkaline phosphatase (setting [2]), the “A1-Results R1” value was 3.428 and the “A1-Results R3” value came out at 3.056. In addition, the “A1-Results AVG” value at alkaline phosphatase (setting [3]) came out at 3.261. Moreover, the “in vivo GHS” value in the data set with skin (setting [4]) is “Cat. 2 (Category 2 (irritation; mean score of ≥2.3 and ≤4.0 for erythema/eschar or for oedema in at least 2 of 3 tested animals at 24, 48, and 72 hours or inflammation that persists to the end of 14 days))”.

For `CC/C=C\CC1=C(C)CCC1=O`, at alkaline phosphatase, the “A1-Results AVG” value is reported as 3.502, the “A1-Results R1” value was 3.502 and the “A1-Results R3” value came out at 3.502.

As to `CCCCCCC=O` [Heptanal], at alkaline phosphatase, the “A1-Results AVG” value is 3.196, the “A1-Results R1” value turned out to be 3.409 and the “A1-Results R3” value is recorded as 3.049. For the same molecule, in data set [1], the “percent … (first reading)” value is 100.0%; the “percent … (second reading)” value stood at 94.4%; the “percent of phosphatase measured, average” value stood at 97.2%. Also, in the data set on skin (rabbit, in vivo), the Corrosive entry is reported as “No” and the “in vivo GHS” value was “Cat. 2”.

In the case of `CC(C)=CCC/C(C)=C/CO`, at alkaline phosphatase (setting [2]), the “A1-Results R1” value was 3.406 and the “A1-Results R3” value was found to be 3.502. Also, the “A1-Results AVG” value on alkaline phosphatase (setting [3]) is 3.470. For the same molecule, the “in vivo GHS” value in the data set with skin (setting [4]) is “Cat. 2 (Category 2 (irritation; mean score of ≥2.3 and ≤4.0 for erythema/eschar or for oedema in at least 2 of 3 tested animals at 24, 48, and 72 hours or inflammation that persists to the end of 14 days))”.

For `CC(=O)OCc1ccccc1` [Benzyl Acetate], on alkaline phosphatase (setting [2]), the “A1-Results R1” value is recorded as 3.401 and the “A1-Results R3” value came to 3.502. On alkaline phosphatase (setting [3]), the “A1-Results AVG” value is recorded as 3.463.

On to `OCCc1ccccc1` [Phenylethyl alcohol], for which, on alkaline phosphatase, the “A1-Results AVG” value amounted to 3.469, the “A1-Results R1” value was 3.502 and the “A1-Results R3” value was determined as 3.403.

As for `C=C(C)[C@@H]1CC=C(CO)CC1` [p-Metha-1,8-dien-7-ol], in the data set with skin (setting [4]), the “in vivo GHS” value is “Cat. 2 (Category 2 (irritation; mean score of ≥2.3 and ≤4.0 for erythema/eschar or for oedema in at least 2 of 3 tested animals at 24, 48, and 72 hours or inflammation that persists to the end of 14 days))”.

For the molecule `CC1=CCC(C(C)(C)O)CC1` (stereo not drawn) [alpha-Terpineol], on alkaline phosphatase (setting [2]), the “A1-Results R1” value is 3.502 and the “A1-Results R3” value is reported as 3.502. Further, the “A1-Results AVG” value at alkaline phosphatase (setting [3]) came out at 3.502.

Regarding `CC(CC=O)CCCC(C)(C)O` (stereo not shown) [Hydroxycitronellal], on alkaline phosphatase, the “A1-Results AVG” value turned out to be 3.356, the “A1-Results R1” value is on record as 3.412 and the “A1-Results R3” value is 3.154.

With `CC(C)O` [Isopropanol], on alkaline phosphatase, the “A1-Results AVG” value is 3.423, the “A1-Results R1” value came out at 3.484 and the “A1-Results R3” value is 3.305.

Take `OCCOCCOCCO` [Triethylene glycol]: in data set [1], the “percent … (first reading)” value amounted to 29.5%; the “percent … (second reading)” value is reported as 28.2%; the “percent of phosphatase measured, average” value amounted to 28.9%. Moreover, the Corrosive result in the data set with skin (rabbit, in vivo) is recorded as “No”.

As to `CC(C=O)Cc1ccc(C(C)C)cc1` (stereo not shown) [Cyclamen aldehyde], at alkaline phosphatase (setting [2]), the “A1-Results R1” value stood at 3.405 and the “A1-Results R3” value was 3.502. Further, the “A1-Results AVG” value at alkaline phosphatase (setting [3]) is 3.470. Moreover, in the data set on porcine skin (setting [5]), the OD190 was 0.694 and 0.716; the OD290 is 0.290 and 0.477; the OD300 was 0.274 and 0.447. For the same molecule, in the data set on porcine skin (setting [6]), the OD190 is 0.222 and 0.214; the OD290 is 0.195 and 0.153; the OD300 was 0.142 and 0.119. In the data set on porcine skin (frozen porcine skin), the OD290 was 1.023 and 0.955; the OD300 is 0.901 and 0.852. Moreover, in data set [1], the “percent … (first reading)” value is on record as 100.0%; the “percent … (second reading)” value was determined as 100.0%; the “percent of phosphatase measured, average” value is 100.0%. For the same molecule, the Corrosive entry in the data set with skin (Table 2) is “No”. Also, the “in vivo GHS” value in the data set on skin (skin, Tables 1A-1C and 2) is “Cat. 2”. Besides, the “in vivo GHS” value in the data set on skin (setting [4]) was “Cat. 2 (Category 2 (irritation; mean score of ≥2.3 and ≤4.0 for erythema/eschar or for oedema in at least 2 of 3 tested animals at 24, 48, and 72 hours or inflammation that persists to the end of 14 days))”.

Consider `CCCCCCCCCCCCCC(=O)OC(C)C` [Isopropyl Myristate], for which, at alkaline phosphatase, the “A1-Results AVG” value is on record as 3.451, the “A1-Results R1” value amounted to 3.373 and the “A1-Results R3” value was 3.484.

For the molecule `O=C(OCc1ccccc1)c1ccccc1O` [Benzyl Salicylate], at alkaline phosphatase (setting [2]), the “A1-Results R1” value worked out at 3.502 and the “A1-Results R3” value is 3.445. At alkaline phosphatase (setting [3]), the “A1-Results AVG” value was determined as 3.464.

Turning to `CCCSSCCC` [di-n-Propyl disulfide], on alkaline phosphatase (setting [2]), the “A1-Results R1” value was 3.467 and the “A1-Results R3” value worked out at 3.395. In addition, the “A1-Results AVG” value on alkaline phosphatase (setting [3]) is listed as 3.445. Further, in data set [1], the “percent … (first reading)” value was 68.1%; the “percent … (second reading)” value came to 71.6%; the “percent of phosphatase measured, average” value worked out at 69.9%. The Corrosive result in the data set on skin (Table 2) is “No”. In addition, in the data set on skin (skin, Tables 1A-1C and 2), the “in vivo GHS” value is recorded as “Cat. 2”. Besides, in the data set on skin (setting [4]), the “in vivo GHS” value was “Cat. 2 (Category 2 (irritation; mean score of ≥2.3 and ≤4.0 for erythema/eschar or for oedema in at least 2 of 3 tested animals at 24, 48, and 72 hours or inflammation that persists to the end of 14 days))”.

Turning to `CSc1ccc(C=O)cc1`, at alkaline phosphatase (setting [2]), the “A1-Results R1” value came out at 3.354 and the “A1-Results R3” value came to 3.238. The “A1-Results AVG” value at alkaline phosphatase (setting [3]) stood at 3.344.

Consider `CCCCCCCN` [n-Heptylamine], for which, at alkaline phosphatase, the “A1-Results AVG” value is reported as 2.557; the “A1-Results R1” value was 2.141; the “A1-Results R3” value amounted to 2.862; the “OD405 readings (FIG. 6D)” value was 3.244 and 3.057 and 3.152. Besides, on alkaline phosphatase, the “prediction based on OD405 values (FIG. 6B)” value is listed as “incorrectly predicted”. In addition, the “in vivo GHS” value with skin (setting [4]) is given as “Cat. 1B/1C”.

The values are drawn from US20250369032A1 (priority 2023, published 2025).
